Patent US20110124589A1, “INHALED FOSFOMYCIN/TOBRAMYCIN FOR THE TREATMENT OF CHRONIC OBSTRUCTIVE PULMONARY DISEASE” (Gilead Sciences, Inc., priority 2009, published 2011)
In brackets after ≈: the same amount, converted by molar mass. Where two headings read alike, the source gives them in different places.

Experiments:
S. aureus [1] = settings: 16 isolates; agar dilution; cited from earlier work
S. aureus [2] = settings: cited from earlier work; for Range of MBC/MIC: 10 strains
H. influenzae [3] = test: MIC of recent clinical isolates, agar dilution (CMI study); type: cell-based; settings: Haemophilus influenzae
Klebsiella spp. [4] = settings: cited from earlier work; for Range of MBC/MIC: 5 strains
P. aeruginosa [5] = settings: agar dilution, cited from earlier work
P. aeuriginosa = test: Dose-response time-kill studies in 2% mucin; type: cell-based; settings: for bactericidal or bacteriostatic / time-dependent or concentration-dependent killing: 2% mucin (FIGS. 4-6)
P. aeruginosa C177 = test: Rat bacterial pneumonia model
Experimental: Animals were handled according to the guidelines for the Care and use of Laboratory Animals. […] All animal protocols were approved by an IRB/Ethics Committee. Male Sprague-Dawley rats (180-200 g) were obtained from Charles River Laboratories (Hollister, Calif., USA) and acclimatized for 5 days prior to use. Animals were housed individually in ventilated cages, fed Purina Lab Diet ad libitum and allowed free access to water.
Antibiotic efficacy was determined using a rat bacterial pneumonia model. […] Rats were anaesthetized with isoflurane, and ˜10^3 cfu of P. aeruginosa C177 in 2% agar solution were instilled into the lungs with an oral gavage needle. The inoculum was deposited at the first bifurcation and distributed throughout the lungs by inspiration. Animals were allowed to recover for 18 hr post-infection. Each experiment consisted of pre-treatment (n=5-7), saline control with isoflurane, and 100 μL of antibiotic solution or saline was instilled in the trachea using a Microsprayer™ (Penn-Century In., Philadelphia, Pa., USA). Antibiotics were administered intratracheally twice daily for 3 days.
Animals were euthanized by intraperitoneal administration of sodium pentobarbital. The pre-treatment control group was harvested 18 hr post-infection, and the saline and treatment groups 18 hr after the last antibiotic exposure. Lungs were removed aseptically, homogenized in sterile normal saline and viable bacteria determined by the colony count method. Statistical differences between the saline control group and treatment groups were evaluated by the Mann-Whitney Rank Sum Test using GraphPad Prism® software package version 3.03 (GraphPad Software, Inc., San Diego, Calif., USA).

P. aeruginosa [6] = test: MIC, agar-plate dilution with 2% porcine gastric mucin (Method B); type: cell-based; settings: Pseudomonas aeruginosa; 100 P. aeruginosa strains from cystic fibrosis lung sputum; 2% mucin
Experimental: Bacterial strains were streaked onto […] […] Louis, Mo.). […] Louis, Mo.). […] Methodologies were identical to that described in Method A above, with the exception that 2% (weight/volume) porcine gastric mucin (Sigma Chemical Co., St. Louis, Mo.) was added to the MHA prior to autoclaving.

P. aeruginosa ATCC 27853 [7] = test: Time-kill experiments in 2% porcine gastric mucin; type: cell-based; settings: 2% mucin; for activity at 24 hours in time-kill curves (FIG. 2): 12.8 μg/mL fosfomycin, 3.2 μg/mL tobramycin, or both; for killing activity in time-kill curves (FIG. 2): 4×MIC: 12.8 μg/mL fosfomycin + 3.2 μg/mL tobramycin vs the components alone; for killing activity in time-kill curves (FIG. 1): 9:1 combination (fosfomycin 14.4 μg/mL + tobramycin 1.6 μg/mL) vs the components alone
Experimental: These studies were previously reported in PCT Publication no. WO2005/110022 to Gilead Sciences, Inc. (formerly Carus Pharma). Two to three bacterial colonies were inoculated into 10 mL CAMHB and incubated at 35° C. in a shaking water bath (250 rpm) for 18-24 hours. A 1:40 dilution of the overnight culture was made in 10 mL of fresh CAMHB and incubated at 35° C. in a shaking water bath (250 rpm) for 1-2 hours. […] Ten milliliter aliquots were then pipeted into 50 mL conical tubes. […] The killing activity of fosfomycin plus tobramycin was also compared to the killing activity of the individual components. […] A no drug control was conducted in each experiment. […] Bacterial killing was determined at 0, 1, 2, 4, 6, and 24 hours by making 10-fold serial dilutions of the cultures in sterile normal saline, and spreading 100 μl aliquots on blood agar plates. […] The limit of detection for the colony counting method was 1 Log10. Time-kill curves were constructed by plotting the Log10 number of CFU/mL culture versus time.

S. pneumoniae [8] = settings: 8 isolates; agar dilution; cited from earlier work
B. cepacia complex = settings: 20 isolates; agar dilution; cited from earlier work
[9] = Sputum drug concentrations following aerosolization of FTI; type: in vivo, human; settings: for sputum concentration range for patient type and dose: both FTI doses, CF and bronchiectasis patients; for Cmax: human, sputum, inhaled
Experimental: In order to assess the amount of drug delivered to the respiratory track, drug concentration was measured in expectorated sputum for patients with CF or bronchiectasis. The fosfomycin and tobramycin range for patient type and dose was 1751-2974 μg/g and 326-881 μg/g, respectively.

M. catarrhalis [10] = settings: 5 isolates; agar dilution; cited from earlier work
M. catarrhalis [11] = test: MIC of recent clinical isolates, agar dilution (CMI study); type: cell-based; settings: Moraxella catarrhalis; 103 isolates
S. pyogenes = settings: 5 isolates; broth microdilution; cited from earlier work
E. coli = settings: cited from earlier work; for Range of MBC/MIC: 10 strains
H. influenzae [12] = settings: 16 isolates; agar dilution; cited from earlier work
Klebsiella spp. [13] = settings: 22 isolates; broth microdilution; cited from earlier work
P. aeruginosa ATCC 27853 [14] = test: MBC/MIC, broth microdilution
Experimental: The MBCs of fosfomycin and tobramycin alone for P. aeruginosa ATCC 27853, E. coli ATCC 25922, and S. aureus ATCC 29213 were determined by the broth microdilution method according to NCCLS standards (NCCLS, 1999). […] Bacterial strains were streaked onto blood agar plates and incubated at 35° C. for 18-24 hours. Two to three bacterial colonies from the overnight cultures were inoculated into 3 mL of sterile normal saline, vortexed briefly, and adjusted to a 0.5 McFarland standard (NCCLS, 2003). Fifty microliters of bacterial inoculum (approximately 2×10^5 CFU/mL) was pipeted into individual wells of 96-well plates containing 50 μl of CAMHB (Remel, Lenexa, Kanas) supplemented with 2-fold dilutions of antibiotics ranging in concentration from 0.125 μg/mL to 128 μg/mL. […] The contents of wells showing no growth (MIC and above) were mixed with a pipetor and duplicate 10 μl samples spread onto blood agar plates. Culture plates were incubated at 35° C. for 18-24 hours and the number of bacterial colonies on each plate enumerated manually. Rejection values were determined by NCCLS methods which considers the final inoculum size, single or double sampling, pipetting error, and the Poisson distributuion of sample responses (NCCLS, 1999). […] The MBC/MIC ratios were calculated by dividing the MBC by the MIC.

H. influenzae [15] = settings: cited from earlier work; for Range of MBC/MIC: 6 strains
S. aureus [16] = test: MIC of recent clinical isolates, agar dilution (CMI study); type: cell-based; settings: Staphylococcus aureus
S. pneumoniae [17] = test: MIC, agar-plate dilution (Method A); settings: Streptococcus pneumoniae
Experimental: (§1) The efficacy of antibiotics and antibiotic combinations against Gram-positive and Gram-negative bacteria representative of species that cause respiratory infections were evaluated in MIC assays. […] H. influenzae, M. catarrhalis, and S. aureus, were isolated from respiratory tract infections. E. coli ATCC 25922, P. aeruginosa ATCC 27853, and S. aureus ATCC 29213 were used as quality control stains.
(§2) Method A: The MICs of fosfomycin alone, tobramycin alone, or combinations of fosfomycin plus tobramycin were determined by the agar-plate dilution method according to NCCLS guidelines (NCCLS, 2003). Bacterial strains were streaked onto Trypic Soy Agar plates (PML Microbiologicals, Wilsonville, Oreg.) containing 5% defibrinated sheep blood (hereafter referred to as blood agar plates) and incubated overnight at 35° C. Two to three bacterial colonies from the overnight cultures were inoculated into 3 mL of sterile normal saline, vortexed briefly, and adjusted to a 0.5 McFarland standard (NCCLS, 2003). The bacterial suspension was diluted 1:40 in sterile normal saline and served as the inoculum. Mueller-Hinton agar plates (hereafter referred to as MHA) were prepared by combining 16 g of agarose (Becton-Dickinson, Sparks, Md.), 22 g of Mueller-Hinton broth powder (Becton-Dickinson, Sparks, Md.), and adjusted to 1 L with distilled water. The agar was sterilized by autoclaving, cooled to 55° C., and supplemented with 25 μg/mL of glucose-6-phosphate (Sigma-Aldrich, St. Louis, Mo.). Twenty-five mL of cooled agar was aliquoted into 50 mL conical tubes and supplemented with appropriate concentrations of antibiotic to achieve concentrations ranging from 0.06 μg/mL to 512 μg/mL. After gently mixing the agar and antibiotic, the suspension was poured into sterile 100 mm petri dishes and allowed to solidify at room temperature. The antibiotic agar plates were inoculated with approximately 2×10^4 CFU/spot with a 48-point inoculator (Sigma-Aldrich, St. Louis, Mo.). The MIC was defined as the lowest concentration of antibiotic (s) that prevented visible growth after incubation for 18-20 hours at 35° C.

S. pneumoniae [18] = test: MIC of recent clinical isolates, agar dilution (CMI study); type: cell-based
H. influenzae [19] = test: MIC, agar-plate dilution (Method A)
Experimental: as §1, §2

S. aureus [20] = test: MIC, agar-plate dilution (Method A)
Experimental: as §1, §2

[21] = 20 mg, patients with Bronchiectasis, aerosolized 80:20 mg FTI
[22] = 20 mg, patients with Cystic Fibrosis, aerosolized 80:20 mg FTI
[23] = 40 mg, patients with Bronchiectasis, aerosolized 160:40 mg FTI
[24] = 40 mg, patients with Cystic Fibrosis, aerosolized 160:40 mg FTI
[25] = Penicillin resistant, 32 isolates
[26] = Streptococcus pneumoniae, Penicillin resistant, 32 isolates
[27] = Streptococcus pneumoniae, penicillin suscept., 39 isolates
[28] = Streptococcus pneumoniae, penicillin suscept., 39 isolates, read-out: MIC50

## CN[C@H](CC(C)C)C(=O)N[C@H]1C(=O)N[C@@H](CC(N)=O)C(=O)N[C@H]2C(=O)N[C@H]3C(=O)N[C@H](C(=O)N[C@H](C(=O)O)c4cc(O)cc(O)c4-c4cc3ccc4O)[C@H](O)c3ccc(c(Cl)c3)Oc3cc2cc(c3O[C@@H]2O[C@H](CO)[C@@H](O)[C@H](O)[C@H]2O[C@H]2C[C@](C)(N)[C@H](O)[C@H](C)O2)Oc2ccc(cc2Cl)[C@H]1O [vancomycin]
S. aureus [1]
  MIC50: 1 µg/mL (≈ 0.69 µM)

## NC[C@H]1O[C@H](O[C@H]2[C@H](O)[C@@H](O[C@H]3O[C@H](CO)[C@@H](O)[C@H](N)[C@H]3O)[C@H](N)C[C@@H]2N)[C@H](N)C[C@@H]1O [Tobramycin]
S. aureus [2]
  Range of MBC/MIC: 1-2
  strains against which bactericidal: 100%
H. influenzae [3]; β-lactamase neg, 62 isolates
  MIC50: 4 µg/mL
  MIC90: 8 µg/mL
H. influenzae [3]; β-lactamase pos, 39 isolates
  MIC50: 4 µg/mL
  MIC90: 4 µg/mL
Klebsiella spp. [4]
  Range of MBC/MIC: 1-4
  strains against which bactericidal: 100%
P. aeruginosa [5]; CF, 100 isolates
  MIC50: 2 µg/mL (≈ 4.28 µM)
  MIC90: 16 µg/mL (≈ 34.2 µM)
P. aeruginosa [5]; non-CF, 60 isolates
  MIC50: 1 µg/mL (≈ 2.14 µM)
  MIC90: 128 µg/mL (≈ 274 µM)
P. aeuriginosa
  bactericidal or bacteriostatic: rapidly bactericidal
  time-dependent or concentration-dependent killing: concentration-dependent killing
P. aeuriginosa; 2% mucin (FIGS. 5-6)
  re-growth within 24 hours: re-growth occurred within 24 hours
P. aeruginosa C177; 1 mg/kg of tobramycin alone (FIG. 11)
  reduction in lung burden: ~500 fold
P. aeruginosa C177; 2.5 mg/kg intratracheally twice daily for 3 days (FIG. 11)
  bacterial killing in rat lung: 3 Log10
P. aeruginosa C177; doses higher than 3 mg/kg intratracheally
  eradication of P. aeruginosa infection: complete eradication
P. aeruginosa C177; doses=0.5 mg/kg intratracheally
  bacterial killing in rat lung: did not result in bacterial killing
P. aeruginosa [6]
  MIC50: 16 µg/mL (≈ 34.2 µM)
  MIC90: 64 µg/mL (≈ 137 µM)
P. aeruginosa ATCC 27853 [7]
  activity at 24 hours in time-kill curves (FIG. 2): re-growth was observed
  killing activity in time-kill curves (FIG. 2): bacteriostatic activity
  killing activity in time-kill curves (FIG. 1): bacteriostatic killing
S. pneumoniae [8]
  MIC range: 16 to 64 µg/mL
B. cepacia complex
  MIC50: 64 µg/mL (≈ 137 µM)
  MIC90: 512 µg/mL (≈ 1100 µM)
[9]
  sputum concentration range for patient type and dose: 326 to 881 µg/g
[9]; [21]
  Cmax: 326000 ng/g
[9]; [22]
  Cmax: 580000 ng/g
[9]; [23]
  Cmax: 587000 ng/g
[9]; [24]
  Cmax: 881000 ng/g
M. catarrhalis [10]
  MIC range: 0.5 to 1 µg/mL
M. catarrhalis [11]
  MIC50: 0.12 µg/mL
  MIC90: 0.25 µg/mL
S. pyogenes
  MIC range: 16 to 64 µg/mL
E. coli
  Range of MBC/MIC: 1-4
  strains against which bactericidal: 100%
H. influenzae [12]
  MIC50: 1 µg/mL (≈ 2.14 µM)
  MIC90: 1 µg/mL (≈ 2.14 µM)
  MIC range: 0.5 to 1 µg/mL
Klebsiella spp. [13]
  MIC50: 0.13 µg/mL (≈ 0.278 µM)
  MIC90: 16 µg/mL (≈ 34.2 µM)
P. aeruginosa ATCC 27853 [14]
  MBC/MIC: 1
H. influenzae [15]
  Range of MBC/MIC: 1-2
  strains against which bactericidal: 100%
S. aureus [16]; MRSA, 103 isolates
  MIC50: 0.5 µg/mL
  MIC90: > 32 µg/mL
S. aureus [16]; MSSA, 104 isolates
  MIC50: 0.25 µg/mL
  MIC90: 0.5 µg/mL
S. pneumoniae [17]; strain COR-061
  MIC: 64 µg/mL (≈ 137 µM)
S. pneumoniae [17]; strain COR-068
  MIC: 16 µg/mL (≈ 34.2 µM)
S. pneumoniae [18]; [25]
  MIC50: 32 µg/mL
S. pneumoniae [18]; [26]
  MIC90: > 32 µg/mL
S. pneumoniae [18]; [27]
  MIC90: > 32 µg/mL
S. pneumoniae [18]; [28]
  MIC50: 32 µg/mL
H. influenzae [19]; Haemophilus influenzae
  MIC: 0.5 µg/mL (≈ 1.07 µM)
H. influenzae [19]; strain COR-049
  MIC: 0.5 µg/mL (≈ 1.07 µM)
S. aureus [20]; Staphylococcus aureus
  MIC: 64 µg/mL (≈ 137 µM)
S. aureus [20]; Staphylococcus aureus, MRSA
  MIC: 0.25 µg/mL (≈ 0.535 µM)
S. aureus [20]; Staphylococcus aureus, MSSA
  MIC: 0.25 µg/mL (≈ 0.535 µM)
S. aureus [20]; Staphylococcus aureus, strain COR-059
  MIC: 128 µg/mL (≈ 274 µM)

## O=C(O)c1cn(C2CC2)c2cc(N3CCNCC3)c(F)cc2c1=O [ciprofloxacin]
S. aureus [1]
  MIC50: > 4 µg/mL

## C[C@@H]1O[C@@H]1P(=O)(O)O [Fosfomycin]
S. aureus [2]
  Range of MBC/MIC: 1-8
  strains against which bactericidal: 80%
H. influenzae [3]; β-lactamase neg, 62 isolates
  MIC50: 0.25 µg/mL
  MIC90: 8 µg/mL
H. influenzae [3]; β-lactamase pos, 39 isolates
  MIC50: 0.5 µg/mL
  MIC90: 2 µg/mL
Klebsiella spp. [4]
  Range of MBC/MIC: 1-4
  strains against which bactericidal: 100%
P. aeruginosa [5]; CF, 100 isolates
  MIC50: 64 µg/mL (≈ 464 µM)
  MIC90: 512 µg/mL (≈ 3710 µM)
P. aeruginosa [5]; non-CF, 60 isolates
  MIC50: 32 µg/mL (≈ 232 µM)
  MIC90: 128 µg/mL (≈ 927 µM)
P. aeuriginosa
  bactericidal or bacteriostatic: bacteriostatic
  time-dependent or concentration-dependent killing: time-dependent killing
P. aeruginosa C177; =10 mg/kg intratracheally (FIG. 12)
  reduction in cfu/lung: not observed
P. aeruginosa [6]
  MIC50: 64 µg/mL (≈ 464 µM)
  MIC90: 128 µg/mL (≈ 927 µM)
P. aeruginosa ATCC 27853 [7]
  activity at 24 hours in time-kill curves (FIG. 2): re-growth was observed
  killing activity in time-kill curves (FIG. 2): bacteriostatic activity
  killing activity in time-kill curves (FIG. 1): bacteriostatic killing
S. pneumoniae [8]
  MIC range: 8 to 32 µg/mL
B. cepacia complex
  MIC50: >512 µg/mL
  MIC90: >512 µg/mL
[9]
  sputum concentration range for patient type and dose: 1751 to 2974 µg/g
[9]; [21]
  Cmax: 1.75e+06 ng/g
[9]; [22]
  Cmax: 2.07e+06 ng/g
[9]; [23]
  Cmax: 1.98e+06 ng/g
[9]; [24]
  Cmax: 2.97e+06 ng/g
M. catarrhalis [10]
  MIC range: 4 to 16 µg/mL
M. catarrhalis [11]
  MIC50: 8 µg/mL
  MIC90: 16 µg/mL
S. pyogenes
  MIC range: 16 to 64 µg/mL
E. coli
  Range of MBC/MIC: 1-8
  strains against which bactericidal: 90%
H. influenzae [12]
  MIC50: 0.5 µg/mL (≈ 3.62 µM)
  MIC90: 2 µg/mL (≈ 14.5 µM)
  MIC range: 0.25 to 4 µg/mL
Klebsiella spp. [13]
  MIC50: 4 µg/mL (≈ 29 µM)
  MIC90: 16 µg/mL (≈ 116 µM)
  MIC range: 0.5-16^ mg/L
P. aeruginosa ATCC 27853 [14]
  MBC/MIC: =8
H. influenzae [15]
  Range of MBC/MIC: 1-8
  strains against which bactericidal: 83%
S. aureus [16]; MRSA, 103 isolates
  MIC50: 4 µg/mL
  MIC90: 8 µg/mL
S. aureus [16]; MSSA, 104 isolates
  MIC50: 4 µg/mL
  MIC90: 4 µg/mL
S. pneumoniae [17]; strain COR-061
  MIC: 32 µg/mL (≈ 232 µM)
S. pneumoniae [17]; strain COR-068
  MIC: 8 µg/mL (≈ 57.9 µM)
S. pneumoniae [18]; [25]
  MIC50: 16 µg/mL
S. pneumoniae [18]; [26]
  MIC90: 32 µg/mL
S. pneumoniae [18]; [27]
  MIC90: 16 µg/mL
S. pneumoniae [18]; [28]
  MIC50: 16 µg/mL
H. influenzae [19]; Haemophilus influenzae
  MIC: 8 µg/mL (≈ 57.9 µM)
H. influenzae [19]; Haemophilus influenzae, strain COR-049
  MIC: 128 µg/mL (≈ 927 µM)
S. aureus [20]; Staphylococcus aureus
  MIC: 2 µg/mL (≈ 14.5 µM)
S. aureus [20]; Staphylococcus aureus, MRSA
  MIC: 4 µg/mL (≈ 29 µM)
S. aureus [20]; Staphylococcus aureus, MSSA
  MIC: 1 µg/mL (≈ 7.24 µM)
S. aureus [20]; strain COR-060 (GISA)
  MIC: 2 µg/mL (≈ 14.5 µM)
